# Test results as given in publication PMC9179341, “Design of New Potent and Selective Thiophene-Based KV1.3 Inhibitors and Their Potential for Anticancer Activity” (Cancers, 2022).
# What was measured:
# Assay type in all cases: cell-based
# KV1.4 = KV1.4 (Homo sapiens, UniProt P22459); assay: Selectivity, HiClamp Xenopus laevis heterologous expression system, KV1.4
# Description: (§1) Ion channels (Kv1.x, Kv2.1, Kv4.2, Kv10.1) were expressed in Xenopus laevis oocytes by linearization of the plasmids and subsequent in vitro transcription using a commercial T7 or SP6 mMESSAGE mMACHINE transcription kit (Ambion, Carlsbad, California, USA). Defolliculated Xenopus oocytes were then injected with 20–50 nL of the cRNA at a concentration of 1 ng/nL using a micro-injector (Drummond Scientific1, Broomall, PA, USA). The oocytes were incubated in a solution containing (in mM): NaCl, 96; KCl, 2; CaCl2, 1.8; MgCl2, 2 and HEPES, 5 (pH 7.5), supplemented with 50 mg/L gentamycin sulfate and 90 mg/L theophylline. After ex vivo translation, the ion channels were correctly inserted in the cell membrane of the oocytes.
# (§2) Two-electrode voltage-clamp recordings were performed at room temperature (18–22 °C) using a Geneclamp 500 amplifier (Molecular Devices, San Jose, CA, USA) and pClamp data acquisition (Axon Instruments, Union City, CA, USA) and using an integrated digital TEVC amplifier controlled by HiClamp, an automated Voltage-Clamp Screening System (Multi Channel Systems MCS GmbH, Reutlingen, Germany). Whole-cell currents from oocytes were recorded 1–4 days after injection. The bath solution composition was ND96 (in mM): NaCl, 96; KCl, 2; CaCl2, 1.8; MgCl2, 2 and HEPES, 5 (pH 7.5). Voltage and current electrodes were filled with a 3 M solution of KCl in H2O. […]
# (§3) For the electrophysiological analysis of the compounds, a number of protocols were applied from a holding potential of −90 mV. […] The concentration dependency of all compounds was assessed by measuring the current inhibition in the presence of increasing compound concentrations. […]
# (§4) All electrophysiological data (Figure S1) are presented as means ± S.E.M of n ≥ three independent experiments unless otherwise indicated. All data were analyzed using pClamp Clampfit 10.4 (Molecular Devices, Downingtown, PA, USA), OriginPro 9 (Originlab, Northampton, MA, USA), GraphPad Prism 8 software (GraphPad Software, Inc., San Diego, CA, USA) and DataMining (Multi Channel Systems MCS GmbH, Reutlingen, Germany). […]
# KV1.5 = KV1.5 (Homo sapiens, UniProt P22460); assay: Selectivity, HiClamp Xenopus laevis heterologous expression system, KV1.5; conditions: for Effect on KV1.5 channel: at a concentration of the compound's IC50 value for KV1.3; for IC50: HiClamp, oocytes, NA = no significant inhibition, no IC50 determined
# KV1.5, sequence (P22460 whole entry): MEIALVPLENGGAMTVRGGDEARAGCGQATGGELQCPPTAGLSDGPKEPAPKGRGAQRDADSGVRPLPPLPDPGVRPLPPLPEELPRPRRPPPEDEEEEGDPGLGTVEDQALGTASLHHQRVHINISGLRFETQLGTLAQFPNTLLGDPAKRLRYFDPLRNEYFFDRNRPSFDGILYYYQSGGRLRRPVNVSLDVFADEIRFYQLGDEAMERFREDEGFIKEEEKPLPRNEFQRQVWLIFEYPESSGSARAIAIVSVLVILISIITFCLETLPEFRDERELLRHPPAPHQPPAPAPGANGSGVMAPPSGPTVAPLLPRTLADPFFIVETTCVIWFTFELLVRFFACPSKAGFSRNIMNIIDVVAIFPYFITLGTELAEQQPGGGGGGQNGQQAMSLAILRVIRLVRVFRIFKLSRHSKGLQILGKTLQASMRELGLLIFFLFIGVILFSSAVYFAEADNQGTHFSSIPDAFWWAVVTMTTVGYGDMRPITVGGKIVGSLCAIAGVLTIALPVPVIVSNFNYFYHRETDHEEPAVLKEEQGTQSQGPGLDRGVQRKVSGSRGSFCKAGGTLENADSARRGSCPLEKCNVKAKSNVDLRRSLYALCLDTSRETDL
# Description: as §1
# (§5) Two-electrode voltage-clamp recordings were performed at room temperature (18–22 °C) using a Geneclamp 500 amplifier (Molecular Devices, San Jose, CA, USA) and pClamp data acquisition (Axon Instruments, Union City, CA, USA) and using an integrated digital TEVC amplifier controlled by HiClamp, an automated Voltage-Clamp Screening System (Multi Channel Systems MCS GmbH, Reutlingen, Germany). Whole-cell currents from oocytes were recorded 1–4 days after injection. The bath solution composition was ND96 (in mM): NaCl, 96; KCl, 2; CaCl2, 1.8; MgCl2, 2 and HEPES, 5 (pH 7.5). Voltage and current electrodes were filled with a 3 M solution of KCl in H2O. Resistances of both electrodes were kept between 0.5 and 1.5 MΩ. The elicited Kv1.x, Kv2.1, Kv4.2 and Kv10.1 currents were filtered at 0.5 kHz and sampled at 2 kHz using a four-pole low-pass Bessel filter. Leak subtraction was performed using a P/4 protocol.
# (§6) For the electrophysiological analysis of the compounds, a number of protocols were applied from a holding potential of −90 mV. Currents for Kv1.x, Kv2.1, Kv4.2 and Kv10.1 were evoked by 1 s depolarizing pulses either to 0 mV or to a range of voltage steps between −80 mV and +40 mV. For the analysis of the data, only the inhibition at the 0 mV step was used. The concentration dependency of all compounds was assessed by measuring the current inhibition in the presence of increasing compound concentrations. […] From this stock solution, adequate dilutions with a maximum of 0.5% DMSO were made for testing.
# (§7) All electrophysiological data (Figure S1) are presented as means ± S.E.M of n ≥ three independent experiments unless otherwise indicated. All data were analyzed using pClamp Clampfit 10.4 (Molecular Devices, Downingtown, PA, USA), OriginPro 9 (Originlab, Northampton, MA, USA), GraphPad Prism 8 software (GraphPad Software, Inc., San Diego, CA, USA) and DataMining (Multi Channel Systems MCS GmbH, Reutlingen, Germany). The Dunnett test and one-way ANOVA were performed to calculate the significance of the induced inhibition compared to the control.
# KV1.6 = KV1.6 (Homo sapiens, UniProt P17658); assay: Selectivity, HiClamp Xenopus laevis heterologous expression system, KV1.6; conditions: for Effect on KV1.6 channel: at a concentration of the compound's IC50 value for KV1.3; for IC50: HiClamp, oocytes, NA = no significant inhibition, no IC50 determined
# KV1.6, sequence (P17658 whole entry): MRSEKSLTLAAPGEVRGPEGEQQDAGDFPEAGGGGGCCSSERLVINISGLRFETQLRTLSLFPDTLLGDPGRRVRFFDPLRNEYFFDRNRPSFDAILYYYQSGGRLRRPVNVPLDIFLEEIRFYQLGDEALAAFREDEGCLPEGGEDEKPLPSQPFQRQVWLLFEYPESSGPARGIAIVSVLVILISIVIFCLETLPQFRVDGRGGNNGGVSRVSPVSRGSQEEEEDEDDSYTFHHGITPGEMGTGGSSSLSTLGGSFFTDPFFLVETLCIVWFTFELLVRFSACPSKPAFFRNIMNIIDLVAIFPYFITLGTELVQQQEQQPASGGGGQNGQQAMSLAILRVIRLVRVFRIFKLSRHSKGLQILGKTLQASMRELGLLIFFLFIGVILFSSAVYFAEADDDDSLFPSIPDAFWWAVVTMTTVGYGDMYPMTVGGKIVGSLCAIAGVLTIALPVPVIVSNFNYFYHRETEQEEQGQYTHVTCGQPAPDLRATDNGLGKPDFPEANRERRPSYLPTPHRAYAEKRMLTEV
# Description: as §1, §5, §6, §7
# KV2.1 = target: T1, KV2.1 (Homo sapiens, UniProt Q14721); assay: Selectivity, HiClamp Xenopus laevis heterologous expression system, KV2.1
# T1 sequence (Q14721 1-858): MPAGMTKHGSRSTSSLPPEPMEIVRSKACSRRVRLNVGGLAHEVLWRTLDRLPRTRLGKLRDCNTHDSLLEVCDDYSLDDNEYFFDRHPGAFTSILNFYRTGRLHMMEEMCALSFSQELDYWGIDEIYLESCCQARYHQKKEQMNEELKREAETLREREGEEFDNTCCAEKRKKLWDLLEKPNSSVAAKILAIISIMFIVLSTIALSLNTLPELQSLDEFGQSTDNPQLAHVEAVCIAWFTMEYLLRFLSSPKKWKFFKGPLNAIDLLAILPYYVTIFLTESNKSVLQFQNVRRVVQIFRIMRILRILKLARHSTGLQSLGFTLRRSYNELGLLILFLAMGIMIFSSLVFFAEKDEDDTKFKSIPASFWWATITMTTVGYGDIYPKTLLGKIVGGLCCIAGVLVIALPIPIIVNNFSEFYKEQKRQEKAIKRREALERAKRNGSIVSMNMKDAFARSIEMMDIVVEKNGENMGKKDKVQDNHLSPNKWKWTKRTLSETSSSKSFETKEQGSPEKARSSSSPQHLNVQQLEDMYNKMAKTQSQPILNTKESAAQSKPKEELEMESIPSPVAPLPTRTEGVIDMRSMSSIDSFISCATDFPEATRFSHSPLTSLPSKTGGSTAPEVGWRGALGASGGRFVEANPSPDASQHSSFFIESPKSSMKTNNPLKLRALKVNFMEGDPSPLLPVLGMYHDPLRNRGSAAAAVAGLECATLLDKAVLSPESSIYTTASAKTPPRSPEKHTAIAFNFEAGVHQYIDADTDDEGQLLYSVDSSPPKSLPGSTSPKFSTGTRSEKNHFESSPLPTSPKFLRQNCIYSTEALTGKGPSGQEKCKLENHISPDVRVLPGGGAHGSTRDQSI
# Description: as §1, §2, §3, §4
# KV10.1 = KV10.1 (Homo sapiens, UniProt O95259); assay: Selectivity, HiClamp Xenopus laevis heterologous expression system, KV10.1; conditions: at a concentration of the compound's IC50 value for KV1.3
# KV10.1, sequence (O95259 whole entry): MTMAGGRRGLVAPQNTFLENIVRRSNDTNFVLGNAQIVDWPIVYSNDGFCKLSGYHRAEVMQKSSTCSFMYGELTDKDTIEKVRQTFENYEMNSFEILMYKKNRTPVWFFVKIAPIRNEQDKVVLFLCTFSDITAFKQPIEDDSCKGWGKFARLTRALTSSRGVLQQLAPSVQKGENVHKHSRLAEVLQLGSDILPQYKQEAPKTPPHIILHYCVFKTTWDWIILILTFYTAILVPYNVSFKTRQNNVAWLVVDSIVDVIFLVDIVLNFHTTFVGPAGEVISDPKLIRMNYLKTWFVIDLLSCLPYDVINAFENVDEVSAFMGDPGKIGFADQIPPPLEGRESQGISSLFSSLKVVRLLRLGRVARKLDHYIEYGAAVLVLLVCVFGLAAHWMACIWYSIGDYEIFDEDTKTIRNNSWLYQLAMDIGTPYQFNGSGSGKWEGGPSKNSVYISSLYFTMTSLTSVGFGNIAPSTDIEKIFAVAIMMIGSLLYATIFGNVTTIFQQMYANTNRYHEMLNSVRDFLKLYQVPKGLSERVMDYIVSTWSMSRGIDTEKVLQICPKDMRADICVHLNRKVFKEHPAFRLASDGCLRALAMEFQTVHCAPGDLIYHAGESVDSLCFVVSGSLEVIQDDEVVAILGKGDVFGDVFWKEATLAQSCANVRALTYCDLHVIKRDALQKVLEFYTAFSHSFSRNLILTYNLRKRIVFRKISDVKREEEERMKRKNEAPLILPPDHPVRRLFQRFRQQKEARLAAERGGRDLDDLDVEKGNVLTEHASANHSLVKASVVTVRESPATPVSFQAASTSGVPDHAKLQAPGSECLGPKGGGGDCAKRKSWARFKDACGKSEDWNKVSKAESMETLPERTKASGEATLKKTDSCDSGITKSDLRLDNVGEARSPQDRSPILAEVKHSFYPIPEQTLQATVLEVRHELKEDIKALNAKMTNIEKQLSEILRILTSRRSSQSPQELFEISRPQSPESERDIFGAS
# Description: as §1, with “After ex vivo translation, the ion channels were correctly inserted in the cell membrane of the oocytes.” left out
# as §2, with “injection.” for “injection. The bath solution composition was ND96 (in mM): NaCl, 96; KCl, 2; CaCl2, 1.8; MgCl2, 2 and HEPES, 5 (pH 7.5). Voltage and current electrodes were filled with a 3 M solution of KCl in H2O.”
# as §3
# KV1.3 = KV1.3 (Homo sapiens, UniProt P22001); assay: KV1.3 inhibition, manual whole-cell patch-clamp on Ltk^− cells; design: expressed in transfected cells; host or cells: Ltk- cells (mouse fibroblasts), transient transfection with lipofectamine 2000
# KV1.3, sequence (P22001 whole entry): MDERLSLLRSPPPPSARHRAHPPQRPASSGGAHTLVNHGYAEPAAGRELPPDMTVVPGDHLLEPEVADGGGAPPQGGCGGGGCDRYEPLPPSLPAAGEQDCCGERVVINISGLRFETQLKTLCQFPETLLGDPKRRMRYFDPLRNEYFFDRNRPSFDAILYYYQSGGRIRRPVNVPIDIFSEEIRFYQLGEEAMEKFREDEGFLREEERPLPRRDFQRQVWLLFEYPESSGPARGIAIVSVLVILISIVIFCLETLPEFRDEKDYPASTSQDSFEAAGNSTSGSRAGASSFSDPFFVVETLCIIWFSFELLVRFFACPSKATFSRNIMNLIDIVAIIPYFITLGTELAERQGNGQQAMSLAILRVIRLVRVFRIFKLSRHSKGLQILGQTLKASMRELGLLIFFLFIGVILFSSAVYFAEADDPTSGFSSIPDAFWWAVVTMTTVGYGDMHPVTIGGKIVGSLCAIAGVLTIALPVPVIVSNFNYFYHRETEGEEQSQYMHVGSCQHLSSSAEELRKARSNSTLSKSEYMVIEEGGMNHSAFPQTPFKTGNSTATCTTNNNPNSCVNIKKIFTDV
# KV4.2 = KV4.2 (Homo sapiens, UniProt Q9NZV8); assay: Selectivity, HiClamp Xenopus laevis heterologous expression system, KV4.2; conditions: oocytes, NA = no significant inhibition, no IC50 determined
# KV4.2, sequence (Q9NZV8 whole entry): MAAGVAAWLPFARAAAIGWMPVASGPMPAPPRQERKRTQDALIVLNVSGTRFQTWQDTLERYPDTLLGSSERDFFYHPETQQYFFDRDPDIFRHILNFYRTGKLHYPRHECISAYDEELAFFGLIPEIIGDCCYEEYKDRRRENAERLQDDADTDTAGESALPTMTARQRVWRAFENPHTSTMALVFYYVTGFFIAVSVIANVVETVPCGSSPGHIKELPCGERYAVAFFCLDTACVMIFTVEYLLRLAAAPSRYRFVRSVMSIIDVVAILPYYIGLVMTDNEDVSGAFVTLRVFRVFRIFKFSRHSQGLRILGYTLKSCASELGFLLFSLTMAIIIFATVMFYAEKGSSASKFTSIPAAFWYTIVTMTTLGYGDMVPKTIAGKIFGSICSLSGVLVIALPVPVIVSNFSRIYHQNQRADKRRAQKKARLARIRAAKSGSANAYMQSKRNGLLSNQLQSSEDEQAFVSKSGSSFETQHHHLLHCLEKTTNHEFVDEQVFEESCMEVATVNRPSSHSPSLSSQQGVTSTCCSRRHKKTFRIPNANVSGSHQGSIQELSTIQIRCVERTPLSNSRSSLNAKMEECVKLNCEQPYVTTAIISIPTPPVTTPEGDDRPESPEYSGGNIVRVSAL
# Description: as §1, with “After ex vivo translation, the ion channels were correctly inserted in the cell membrane of the oocytes.” left out
# as §2, with “injection.” for “injection. The bath solution composition was ND96 (in mM): NaCl, 96; KCl, 2; CaCl2, 1.8; MgCl2, 2 and HEPES, 5 (pH 7.5). Voltage and current electrodes were filled with a 3 M solution of KCl in H2O.”
# as §3
# [1] = HiClamp, oocytes, NA = no significant inhibition, no IC50 determined
# [2] = at a concentration of the compound's IC50 value for KV1.3
# KV1.4, sequence (P22459 whole entry): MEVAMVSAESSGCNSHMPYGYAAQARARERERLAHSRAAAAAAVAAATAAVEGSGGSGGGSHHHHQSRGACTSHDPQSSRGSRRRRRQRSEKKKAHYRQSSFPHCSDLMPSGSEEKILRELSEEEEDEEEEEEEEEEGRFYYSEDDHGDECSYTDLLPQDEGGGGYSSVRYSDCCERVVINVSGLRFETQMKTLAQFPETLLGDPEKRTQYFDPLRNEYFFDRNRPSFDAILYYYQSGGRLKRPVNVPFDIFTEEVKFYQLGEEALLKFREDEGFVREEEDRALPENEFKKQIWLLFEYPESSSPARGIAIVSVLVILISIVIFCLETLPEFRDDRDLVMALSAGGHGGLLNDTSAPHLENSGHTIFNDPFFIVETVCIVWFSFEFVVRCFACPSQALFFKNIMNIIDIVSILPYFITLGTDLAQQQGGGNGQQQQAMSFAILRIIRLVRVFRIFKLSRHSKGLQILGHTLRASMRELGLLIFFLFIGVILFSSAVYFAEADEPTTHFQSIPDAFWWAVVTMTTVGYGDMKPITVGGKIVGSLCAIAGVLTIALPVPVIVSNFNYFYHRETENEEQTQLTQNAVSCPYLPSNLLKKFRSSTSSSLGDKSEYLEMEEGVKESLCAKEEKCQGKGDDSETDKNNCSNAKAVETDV
IC50 (KV1.4; [1]) [µM],inhibition of KV1.4 (KV1.4; [2]) [%],Effect on KV1.5 channel (KV1.5),Effect on KV1.6 channel (KV1.6),Effect on KV2.1 channel (KV2.1; [2]),Effect on KV10.1 channel (KV10.1),IC50 (KV1.3) [µM],IC50 (KV1.5) [µM],IC50 (KV1.6) [µM],IC50 (KV2.1; [1]) [µM],IC50 (KV4.2) [µM],SMILES
8.48 ± 2.21,~16,no significant effects,no significant effects,no significant effects,no significant effects,0.95 ± 0.24,–,–,–,–,COc1ccccc1C(=O)NCC1(c2ccsc2)CCOCC1 [Compound 44]
–,–,significantly inhibited,significantly inhibited,–,–,1.35 ± 0.04,8.64 ± 0.03,4.33 ± 1.21,–,–,COc1ccc(F)cc1C(=O)NCC1(c2ccccc2)CCOCC1 [Compound 37]
–,–,significant effects,significant effects,–,–,1.33 ± 0.2,2.07 ± 0.13,0.43 ± 0.02,6.45 ± 0.42,2.41 ± 0.88,COc1ccccc1C(=O)NCC1(c2cccs2)CCOC1 (stereo not drawn) [Compound 14]
–,–,significant effects,significant effects,–,–,1.02 ± 0.07,4.33 ± 0.01,0.83 ± 0.01,–,–,COc1ccccc1C(=O)NCC1(c2cccs2)CCOCC1 [Compound 43]
